Source: article PMC7808747, “Design, synthesis, and in vitro evaluation of BP-1-102 analogs with modified hydrophobic fragments for STAT3 inhibition” (Journal of Enzyme Inhibition and Medicinal Chemistry, 2021)

Legend:
[1] = system: mouse lung TC-1 cancer cell line; assay: MTT cytotoxicity assay, TC-1; assay type: cell-based; conditions: for cytotoxic effect in TC-1 (in words): 0–50 µM, 24 h
Experimental: (§1) Cells were seeded at the density of 2000 cells per well (96-well F microplates; Nunc, Roskilde, Denmark). The following day, the tested compounds were added. In the next 24 h, MTT (3-(4,5-dimethylthiazol-2-yl)-2,5-diphenyltetrazolium bromide) was added. After 6 h, DMF (dimethylformamide) was added, and after additional 24 h, absorbance was measured at 560 nm by a microplate reader.

[2] = system: prostate carcinoma DU-145; assay: Resazurin cytotoxicity assay, DU-145
Experimental: (§2) Furthermore, the cytotoxicity of compound 6 was compared to BP-1-102 (1) in human glioblastoma cell lines U-87 and T98 in concentration range 0–80 µM for 24 h using the crystal violet assay.
(§3) The resazurin reduction assay[34] was performed as described previously. Briefly, cells were seeded onto a 96-well plate (2000 cells per well) in hexaplicate and the following day treated with the tested compounds (dissolved in DMSO as 50 mM stock) in a concentration range as indicated. After 24 h, 200 μl of culture medium of each well was exchanged for 100 μl of resazurin (stock 30 mg/ml; Sigma, St. Louis, MO) diluted 10 times in the culture medium, and the cells were incubated at 37 °C for 1–3 h. Reading of fluorescence was done using an Envision reader (PerkinElmer, Waltham, MA). Absolute values of fluorescence were related to the values of control/untreated cells. To estimate the cytotoxic concentration (half maximal inhibitory concentration, IC50), log-scale data were processed in GraphPad Prism software (La Jolla, CA) using nonlinear fit curve.

[3] = system: TRAMP-C2 cells; assay: Annexin V / propidium iodide FACS, TRAMP-C2; assay type: cell-based, mouse; conditions: TRAMP-C2, 24 h
Experimental: (§6) Cells were harvested by centrifugation, resuspended in cold PBS and again centrifuged. Cell pellets were then resuspended in Annexin V Binding Buffer (ApoFlowEx FITC Kit, ED7044, Exbio, Vestec, Czech Republic), annexin V-APC and PI were added to the cell pellet and mixed. Cells were incubated in the dark at room temperature for 15 min. After the incubation, cells were centrifuged, resuspended in Annexin V Binding Buffer and analysed by flow cytometry. Five thousand cells per sample were measured by analysing annexin V and PI using a BD FACSVerse™ flow cytometer (BD Biosciences, Franklin Lakes, NJ). Data were analysed using FlowJo 10 software (FlowJo LLC, Ashland, OR), and the percentage of viable (annexin V-negative/PI-negative) cells relative to control was plotted.

[4] = system: MDA-MB-231 cells; assay: Annexin V / propidium iodide FACS, MDA-MB-231; assay type: cell-based, human; conditions: MDA-MB-231, 0, 5, 10, 20, 50 µM, 24 h
Experimental: as §6

[5] = system: TC-1 cells; assay: Annexin V / propidium iodide FACS, TC-1; conditions: TC-1, 24 h
Experimental: as §6

[6] = system: cervix carcinoma HeLa; assay: Resazurin cytotoxicity assay, HeLa; conditions: 0–50 µM, 24 h
Experimental: as §2, §3

[7] = system: mouse prostate TRAMP-C2 cancer cell line; assay: MTT cytotoxicity assay, TRAMP-C2; assay type: cell-based; conditions: MTT assay; for cytotoxic effect in TRAMP-C2 (in words): 0–50 µM, 24 h
Experimental: as §1

[8] = system: human glioblastoma U373; assay: Crystal violet assay, U373; conditions: 0–50 µM, 24 h
Experimental: (§4) The cells were treated with the compounds at concentrations 0, 5, 10, 20, and 50 µM for 24 h, and the cytotoxicity was estimated by the resazurin assay.
(§5) To determine cell viability by crystal violet assay, cells were seeded in 96-well plates at densities of 3000 (RPE-1), 5000 (U373 and T98-G), and 8000 (U-87 MG) cells per well. The next day the cells were treated with the tested compounds in triplicate in a concentration range as indicated. After 24 h, the cells in each well were washed twice with 150 µl PBS and then stained in 30 µl 0.5% w/v crystal violet in 20% methanol for 15 min. Plates were washed three times with double distilled H2O and left to dry overnight. Crystal violet was solubilised with 75 µl 0.2% Triton X-100 (Sigma, St. Louis, MO) in PBS for 15 min. Absorbance of crystal violet was measured at 595 nm using a microplate reader (Multiskan EX, Thermo Electron Corporation, Waltham, MA). Absorbance of the treated samples was expressed as a percentage of absorbance of untreated cells.

[9] = system: human immortalised retinal pigment epithelium RPE-1; assay: Crystal violet assay, RPE-1; conditions: 0–50 µM, 24 h
Experimental: as §4, §5

[10] = system: human breast adenocarcinoma MCF-7; assay: Resazurin cytotoxicity assay, MCF-7
Experimental: as §2, §3

[11] = system: RPE-1; assay: Resazurin assay, RPE-1 (Table 2); assay type: cell-based; conditions: Homo sapiens, resazurin assay (footnote a), read-out: IC50±SD RPE-1
Experimental: The resazurin reduction assay[34] was performed as described previously[38]. Briefly, cells were seeded onto a 96-well plate (2000 cells per well) in hexaplicate and the following day treated with the tested compounds (dissolved in DMSO as 50 mM stock) in a concentration range as indicated. After 24 h, 200 μl of culture medium of each well was exchanged for 100 μl of resazurin (stock 30 mg/ml; Sigma, St. Louis, MO) diluted 10 times in the culture medium, and the cells were incubated at 37 °C for 1–3 h. Reading of fluorescence was done using an Envision reader (PerkinElmer, Waltham, MA). Absolute values of fluorescence were related to the values of control/untreated cells. To estimate the cytotoxic concentration (half maximal inhibitory concentration, IC50), log-scale data were processed in GraphPad Prism software (La Jolla, CA) using nonlinear fit curve.

[12] = system: human breast cancer MDA-MB-231 cell line; assay: Resazurin cytotoxicity assay, MDA-MB-231; assay type: cell-based; conditions: resazurin assay; for cytotoxic effect in MDA-MB-231 (in words): 0, 5, 10, 20, 50 µM
Experimental: as §4
To estimate IC50 of 6 and 14, MDA-MB-231 cells were treated with 1 (0, 2, 5, 10, 15, 20, 25, 30, 40, and 50 µM), 6 (0, 5, 10, 20, 25, 30, 40, 50, 70, and 100 µM), and 14 (0, 20, 40, 50, 60, 70, 80, 100, 150, and 200 µM) for 24 h.
as §3

[13] = system: STAT3 Y705 phosphorylation (pY705); assay: STAT3 pY705 immunoblotting, MDA-MB-231; assay type: cell-based, human; conditions: MDA-MB-231, micromolar concentration range, 4 h
Experimental: The cells were exposed to BP-1-102 (1), compounds 6 and 14 in a micromolar concentration range for 4 h, and then the levels of STAT3 pY705 and total STAT3 were probed by immunoblotting with specific antibodies. […] It can be concluded that both novel compounds 6 and 14 manifested inhibitory effects on receptor-mediated phosphorylation of Y705 of STAT3 in both human and mouse cell lines.
Cells were washed three times with PBS, harvested into 95 °C-heated Laemmli SDS sample lysis buffer (2% SDS, 50 mM Tris–Cl, 10% glycerol in double distilled H2O) and sonicated at 3 μm amplitude for 3 × 10 or 3 × 30 s with 10 or 30 s cooling intervals in a Soniprep 150 (MSE, London, UK) or Diagenode Bioruptor 300 (Diagenode, Liege, Belgium) for human and murine cell lines, respectively. Concentration of proteins was estimated by the Pierce^TM BCA Protein Assay (Thermo Scientific, Waltham, MA). DTT (100 mM) and 0.01% bromophenol blue were added to the lysates before separation by SDS-PAGE (10% gels were used). Equal protein amounts (40 or 35 μg for human or murine cell lines, respectively) were loaded into each well. Proteins were electrotransferred onto a nitrocellulose membrane (Amersham^TM Protran^TM 0.45 µm NC, GE Healthcare, Chalfont St Giles, UK) using wet transfer and detected by specific antibodies (at 4 °C overnight) combined with HRP-conjugated secondary antibodies. Peroxidase activity was detected by Amersham^TM ECL Western Blotting Detection Reagents (GE Healthcare, Chalfont St Giles, UK). GAPDH was used as a loading control.

[14] = system: osteosarcoma U2-OS; assay: Resazurin cytotoxicity assay, U2-OS; conditions: 0–50 µM, 24 h
Experimental: as §2, §3

[15] = system: human breast cancer MDA-MB-231; set-up: method as in PMID 20067773; conditions: previously published; cited from earlier work
[16] = system: pancreatic cancer Panc-1 cell lines; set-up: method as in PMID 20067773; conditions: previously published; cited from earlier work

## CN(CC(=O)N(Cc1ccc(C(F)(F)F)cc1)c1ccc(C(=O)O)c(O)c1)S(=O)(=O)c1c(F)c(F)c(F)c(F)c1F [Compound 14, 4-(N-(4-Trifluoromethylbenzyl)-2-(2,3,4,5,6-pentafluoro-N-methylphenylsulfonamido)acetamido)-2-hydroxybenzoic acid]
[1]
  cytotoxic effect in TC-1 (in words): cytotoxic activity comparable to BP-1-102 (1)
[1]; Mus musculus, read-out: IC50±SD TC-1
  IC50: 25.3 ± 6.6 µM
[2]; 0–50 µM, 24 h, resazurin assay
  cytotoxic effect in DU-145 (in words): weaker response
[2]; Homo sapiens, DU-145, read-out: IC50±SD DU-145
  IC50: 65.3 ± 7.8 µM
[3]
  cytotoxicity by annexin V/PI staining and FACS: confirmed
[4]
  cell death induction (annexin V/PI, FACS): cell death induction was confirmed
[5]
  cytotoxicity by annexin V/PI staining and FACS: confirmed
[6]
  cytotoxic effect in HeLa (in words): comparable to BP-1-102 (1) and compound 6 at 50 µM, it was markedly decreased at lower concentrations
[7]
  cytotoxic effect in TRAMP-C2 (in words): cytotoxic activity comparable to BP-1-102 (1)
[7]; Mus musculus, read-out: IC50±SD TRAMP-C2
  IC50: 23.1 ± 10.5 µM
[8]
  cytotoxic activity in U373 (in words): concentration-dependent cytotoxic activity
[9]
  cytotoxic activity in RPE-1 (in words): concentration-dependent cytotoxic activity
[10]; 0–50 µM, 24 h, resazurin assay
  cytotoxic effect in MCF-7 (in words): comparable to BP-1-102 (1) and compound 6 at 50 µM, it was markedly decreased at lower concentrations
[10]; Homo sapiens, MCF7, read-out: IC50±SD MCF-7
  IC50: 47.3 ± 3.8 µM
[11]
  IC50: 39.7 ± 7.4 µM
[12]; Homo sapiens, MDA-MB-231, 24 h, 24 h, read-out: IC50±SD MDA-MB-231
  IC50: 39.3 ± 6.3 µM
[12]; MDA-MB-231, 24 h
  concentration from which the compound was cytotoxic: 20 µM
[13]
  inhibition of constitutive STAT3 Y705 phosphorylation: inhibited constitutive STAT3 phosphorylation
[14]
  cytotoxic effect in U2-OS (in words): comparable to BP-1-102 (1) and compound 6 at 50 µM, it was markedly decreased at lower concentrations

## Cc1ccc(S(=O)(=O)N(C)CC(=O)N(Cc2ccc(C3CCCCC3)cc2)c2ccc(C(=O)O)c(O)c2)cc1 [S3I-201.1066 (2), 4-(N-(4-Cyclohexylbenzyl)-2-(N-methyl-N-(p-toluenesulfonyl))acetamido)-2-hydroxybenzoic acid, reference compound]
[1]
  cytotoxic effect in TC-1 (in words): did not demonstrate any cytotoxic effect
[7]
  cytotoxic effect in TRAMP-C2 (in words): did not demonstrate any cytotoxic effect
[15]
  effect on viability of MDA-MB-231: reported to affect viability
[16]
  effect on viability of Panc-1: reported to affect viability
[12]; 24 h
  cytotoxic effect in MDA-MB-231 (in words): did not show any observable cytotoxic effect
[12]; 24 h, listed as 2
  cytotoxic effect in MDA-MB-231 (in words): complete loss of cytotoxic activity
